# Test results published in patent US8859235B2, “Methods in cell cultures, and related inventions, employing certain additives” (priority 2009, dated 2014).
# What was measured:
# E. coli BL21 [1] = experiment: Growth and GFPuv expression in E. coli BL21 (DE3), shake flask batch culture in complex medium; assay type: cell-based, Escherichia coli; settings: additive 5 mM, 20 h after induction
# Experimental: (§1) The measurement of GFP expression by whole cell fluorescence measurements follows the procedure of Scholz et al. (Eur. J. Biochem., 2000,267, 1565-1570). Frozen cell pellets are thawed, resuspended in 1 mL PBS [NaCl (8 g/L), KCl (0.2), of Na2HPO4 (1.44), KH2PO4 (0.24), adjusted to pH 7.4] and subsequently diluted to an optical density of 0.1. GFP fluorescence of whole cells is measured in a Eclipse Fluorometer (Varian) with an excitation wavelength of 400 nm and an emission wavelength of 512 nm. Specific relative fluorescence [RFU/OD600] is calculated by dividing the relative fluorescence emmision units by the optical density of the suspension at 600 nm.
# Precultures are prepared in 250 mL baffled shake flasks containing 25 mL sterile LB medium [Tryptone (10.0 g/L), yeast extract (5.0), NaCl (10.0), kanamycin 30 (mg/L); adjusted to pH 7.0 with NaOH]. Cultures are inoculated with 250 μL of a glycerol stock stored at −80° C. of E. coli BL21 [Novagen, Madison, USA; Genotype: E ompT hsdSB (rB^− mB^−) gal dcm (DE3)] harboring the plasmid pET28a-GFPuv which is obtained by inserting the GFPuv gene (isolated from pBAD-GFPuv through PCR) into the EcoRI site of pET28a (Novagen, Madison, USA) which placed the GFPuv gene under the control of the T7/Lac promotor system. Precultures are incubated at 37° C. for 10-12 h.
# Experimental cultures are performed in a volume of 25 mL of the above described medium in 250 mL baffled shake flasks. Stabilizers are added to a final concentration of 5 mM as indicated from sterile stock solutions. Cultures are started by inoculating with the preculture to an OD600 at 600 nm of 0.25. Samples are taken for OD600 measurements. Cultures are induced by adding IPTG (Isopropyl-β-D-thiogalactoside) to a final concentration of 0.5 mM when the OD600 reaches 0.5. Samples of 1 mL are taken after induction for OD600 reading and GFP quantification. For GFP quantification 1 mL of the culture is harvested after 2-4 h and after 20 h after induction. Cells are collected by centrifugation at 16 000 g and the cell pellet is stored at −20° C. for further analysis. Analysis of in vivo GFP fluorescence is performed by the method described in Example 1.
# E. coli BL21 [2] = experiment: Time course of growth and GFP expression in E. coli BL21 in high cell density fed-batch cultivation in mineral medium; assay type: cell-based, Escherichia coli; settings: for RFU/OD / OD: additive 5 mM; for OD Factor / RFU/OD Factor: additive vs control
# Experimental: as §1
# E. coli BL21 [Novagen, Madison, USA; Genotype: E ompT hsdSB (rB^− mB^−) gal dcm (DE3)] harboring the plasmid pET28a-GFPuv was constructed as detailed in Example 2. A first preculture is initiated from glycerol stocks stored at −80° C. in 3 mL of LB medium containing 0.01% (v/v) Antifoam A (Fluke). After growth for 10-12 h it is used to seed 2×100 mL of mineral medium (as described in Example 1) containing 0.01% Antifoam A (silicone fluid containing a suspension of finely powdered silica to enhance its defoaming efficiency; Dow Corning Corporation, Midland, Mich., USA), in 1 L baffled shake flasks. After 10-12 h this culture is centrifuged, resuspended in 50 mL mineral medium and is used to inoculate the main culture.
# Cultivation is performed in BioFlow110 bioreactors (Total volume 2.2 L; New Brunswick Scientific, Nürtingen, Germany) filled with 1 L of mineral medium plus 0.01% (v/v) Antifoam A for the batch phase. Reactors are equipped with pH, pO2 and foam probes, mass flow controllers to control gas flow and ratio of air and pure oxygen and pumps for automated dosage of base (14% [v/v] aqueous NH3), antifoam (25% [v/v] Antifoam A) and nutrient feed solution. The agitation is set to 500 rpm and air is supplied at a gas flow rate of 2 L/min. The fedbatch culture is inoculated to an OD600 of 0.25-0.5 and allowed to grow unlimited with a specific growth rate of ˜0.5 h^−1. Growth is monitored by measuring OD600. When the dissolved oxygen concentration decreases to 30%, automated adjustment of the air:oxygen ratio in the gas mix is started to control dO2 to 30% using a PID loop. When the gas mix consisted of 100% oxygen a further increase in oxygen transfer is achieved through increasing the agitation rate up to a maximum level of 1200 rpm. When glycerol in the batch medium is completely consumed, as indicated by a distinct drop of pure oxygen in the gas mix, feeding solutions (first containing 70 g/L glycerol and later as cell density increased 200 g/L glycerol in mineral medium) are pumped into the reactor by a predefined exponential fed scheme. The feeding rate is calculated to allow the cells to grow at a growth rate of approximately 0.15 h^−1. During the feeding phase dO2 is also kept at 30%. 3-6 h after starting the feeding protein expression is induced by the addition of 0.2 (w/v) L-arabinose. Samples are taken every hour for OD600 reading and to obtain cell pellets which are stored at −20° C. for further analysis. Analysis of in vivo GFP fluorescence is performed by the method described in Example 1.
# [3] = cultivation time 16.5 h, 2.5 h after induction
# [4] = cultivation time 20.8 h, 6.0 h after induction
# [5] = cultivation time 32.5 h, 18 h after induction
structure (smiles),measurement,setting,value
"CC1(C)CC(O)CC(C)(C)N1[O] [4-Hydroxy-2,2,6,6-tetramethylpiperidin-1-oxyl]",Growth (Final OD600),"E. coli BL21 [1]; Experiment 1, control 3.4",2.4 OD600
same,GFP expression (Relative fluorescence unit*OD600^−1),"E. coli BL21 [1]; Experiment 1, control 584",1909 Relative fluorescence unit*OD600^−1
same,Growth (Final OD600),"E. coli BL21 [1]; Experiment 2, control 3.3",2.61 OD600
same,GFP expression (Relative fluorescence unit*OD600^−1),"E. coli BL21 [1]; Experiment 2, control 195",319 Relative fluorescence unit*OD600^−1
same,RFU/OD,"E. coli BL21 [2]; cultivation time 16.5 h, 2.5 h after induction, control 9.1",107.9 RFU/OD
same,OD,"E. coli BL21 [2]; cultivation time 16.5 h, 2.5 h after induction, control 30.11",43.57 OD
same,OD Factor,E. coli BL21 [2]; [3],1.45
same,RFU/OD Factor,E. coli BL21 [2]; [3],11.86
same,OD,"E. coli BL21 [2]; cultivation time 20.8 h, 6.0 h after induction, control 48.46",68.52 OD
same,RFU/OD,"E. coli BL21 [2]; cultivation time 20.8 h, 6.0 h after induction, control 264.7",678.8 RFU/OD
same,OD Factor,E. coli BL21 [2]; [4],1.41
same,RFU/OD Factor,E. coli BL21 [2]; [4],2.56
same,OD,"E. coli BL21 [2]; cultivation time 32.5 h, 18 h after induction, control 83.39",94.75 OD
same,RFU/OD,"E. coli BL21 [2]; cultivation time 32.5 h, 18 h after induction, control 486.5",873 RFU/OD
same,OD Factor,E. coli BL21 [2]; [5],1.14
same,RFU/OD Factor,E. coli BL21 [2]; [5],1.79
